Laboratory results from US7329652B2, “Diaminotriazole compounds useful as protein kinase inhibitors” (Vertex Pharamaceuticals Incorporated, priority 2004, dated 2008).
Read-outs that look alike come from different tables or passages of the source.

Legend:
JAK-2 enzyme = JAK-2 enzyme (Homo sapiens, UniProt O60674); test: JAK2 inhibition assay (radiometric 33P filter assay); format: biochemical
Method: (§1) Compounds were screened for their ability to inhibit JAK using the assay shown below. Reactions were carried out in a kinase buffer containing 100 mM HEPES (pH 7.4), 1 mM DTT, 10 mM MgCl2, 25 mM NaCl, and 0.01% BSA.
(§2) Substrate concentrations in the assay were 5 μM ATP (200 uCi/μmole ATP) and 1 μM poly(Glu)4Tyr. Reactions were carried out at 25° C. and 1 nM JAK3.
(§3) To each well of a 96 well polycarbonate plate was added 1.5 μl of a candidate JAK3 inhibitor along with 50 μl of kinase buffer containing 2 μM poly(Glu)4Tyr and 10 μM ATP. This was then mixed and 50 μl of kinase buffer containing 2 nM JAK3 enzyme was added to start the reaction. After 20 minutes at room temperature (25° C.), the reaction was stopped with 50 μl of 20% trichloroacetic acid (TCA) that also contained 0.4 mM ATP. The entire contents of each well were then transferred to a 96 well glass fiber filter plate using a TomTek Cell Harvester. After washing, 60 μl of scintillation fluid was added and ^33P incorporation detected on a Perkin Elmer TopCount.
The assays were as described above in Example 25 except that JAK-2 enzyme was used, the final poly(Glu)4Tyr concentration was 15 μM, and final ATP concentration was 12 μM.

JAK3 = target: T1, JAK3 (Homo sapiens, UniProt P52333); test: JAK3 inhibition assay (radiometric 33P filter assay); format: biochemical
T1 sequence (P52333 1-1124): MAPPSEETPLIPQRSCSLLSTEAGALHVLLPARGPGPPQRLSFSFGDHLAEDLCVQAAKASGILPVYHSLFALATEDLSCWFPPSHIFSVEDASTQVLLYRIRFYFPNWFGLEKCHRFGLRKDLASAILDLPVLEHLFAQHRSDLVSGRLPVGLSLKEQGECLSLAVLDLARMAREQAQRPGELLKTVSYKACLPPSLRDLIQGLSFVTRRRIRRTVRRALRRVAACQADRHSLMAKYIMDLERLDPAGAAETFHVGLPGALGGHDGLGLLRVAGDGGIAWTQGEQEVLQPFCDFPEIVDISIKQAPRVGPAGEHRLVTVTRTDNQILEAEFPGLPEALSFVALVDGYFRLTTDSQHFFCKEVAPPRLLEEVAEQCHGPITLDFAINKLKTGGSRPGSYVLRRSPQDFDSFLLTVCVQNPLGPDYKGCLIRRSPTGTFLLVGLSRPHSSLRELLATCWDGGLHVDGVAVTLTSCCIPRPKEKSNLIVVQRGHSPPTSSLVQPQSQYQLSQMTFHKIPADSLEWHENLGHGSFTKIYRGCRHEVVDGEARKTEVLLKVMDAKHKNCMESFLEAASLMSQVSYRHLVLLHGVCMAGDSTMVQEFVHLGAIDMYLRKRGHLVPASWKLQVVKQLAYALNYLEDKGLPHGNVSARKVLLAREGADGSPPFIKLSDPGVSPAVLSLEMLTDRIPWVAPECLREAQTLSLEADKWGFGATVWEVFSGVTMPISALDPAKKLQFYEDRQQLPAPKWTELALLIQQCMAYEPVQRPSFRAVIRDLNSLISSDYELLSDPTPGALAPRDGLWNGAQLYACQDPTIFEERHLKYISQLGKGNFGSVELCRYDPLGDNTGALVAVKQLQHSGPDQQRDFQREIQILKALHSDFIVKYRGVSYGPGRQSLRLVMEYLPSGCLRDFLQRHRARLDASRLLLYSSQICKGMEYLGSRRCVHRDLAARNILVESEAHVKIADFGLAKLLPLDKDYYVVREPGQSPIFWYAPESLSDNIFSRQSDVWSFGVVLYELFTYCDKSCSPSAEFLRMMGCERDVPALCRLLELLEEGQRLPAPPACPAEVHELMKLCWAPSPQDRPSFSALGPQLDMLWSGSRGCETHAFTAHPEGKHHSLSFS
Method: as §1, §2, §3

[1] = 15 μM poly(Glu)4Tyr, 12 μM ATP, read-out: JAK2 inhibition data (Ki)
[2] = 1 μM poly(Glu)4Tyr, 5 μM ATP, 1 nM JAK3, 25° C., read-out: JAK3 inhibition data (Ki)

Sequence of JAK-2 enzyme (O60674 whole entry, species assumed): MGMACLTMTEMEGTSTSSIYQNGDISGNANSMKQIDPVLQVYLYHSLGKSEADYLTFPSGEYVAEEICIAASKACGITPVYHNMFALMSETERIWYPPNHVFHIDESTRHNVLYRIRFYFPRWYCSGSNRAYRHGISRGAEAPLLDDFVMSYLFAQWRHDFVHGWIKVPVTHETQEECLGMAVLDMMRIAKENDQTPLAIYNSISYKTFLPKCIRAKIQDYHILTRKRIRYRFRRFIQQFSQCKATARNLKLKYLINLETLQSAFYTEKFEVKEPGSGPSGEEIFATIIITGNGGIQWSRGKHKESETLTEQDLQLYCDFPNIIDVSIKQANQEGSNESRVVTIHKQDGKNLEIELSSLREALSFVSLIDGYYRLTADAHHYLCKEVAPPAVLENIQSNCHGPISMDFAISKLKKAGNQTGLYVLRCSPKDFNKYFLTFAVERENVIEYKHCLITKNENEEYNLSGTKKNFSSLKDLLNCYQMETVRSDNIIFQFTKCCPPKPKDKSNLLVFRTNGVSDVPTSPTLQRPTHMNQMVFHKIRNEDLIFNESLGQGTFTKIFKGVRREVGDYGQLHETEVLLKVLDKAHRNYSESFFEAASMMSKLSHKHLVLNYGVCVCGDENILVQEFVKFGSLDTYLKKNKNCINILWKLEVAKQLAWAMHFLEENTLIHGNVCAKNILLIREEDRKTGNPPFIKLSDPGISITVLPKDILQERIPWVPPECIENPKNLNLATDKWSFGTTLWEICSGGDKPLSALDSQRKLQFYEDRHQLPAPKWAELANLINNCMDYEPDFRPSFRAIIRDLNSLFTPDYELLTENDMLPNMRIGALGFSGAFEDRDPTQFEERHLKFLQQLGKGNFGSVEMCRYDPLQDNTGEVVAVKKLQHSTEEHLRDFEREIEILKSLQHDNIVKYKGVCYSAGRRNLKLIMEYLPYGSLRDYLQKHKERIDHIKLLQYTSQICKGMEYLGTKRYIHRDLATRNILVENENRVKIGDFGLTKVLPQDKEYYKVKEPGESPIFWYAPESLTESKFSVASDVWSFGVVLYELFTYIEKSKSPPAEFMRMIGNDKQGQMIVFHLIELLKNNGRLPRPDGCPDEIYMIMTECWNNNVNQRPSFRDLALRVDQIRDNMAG

| Structure (SMILES) | Ki (JAK-2 enzyme; [1]) | Ki (JAK3; [2]) | Ki (JAK-2 enzyme) | Ki (JAK3) |
| --- | --- | --- | --- | --- |
| CC(=O)N1[C@H](C)CN(c2cc(-n3nc(Nc4ccc(N(C)C(=O)OC(C)C)cc4)nc3N)ncn2)C[C@@H]1C [Compound 119] | < 50 nM | < 50 nM |  |  |
| CC(=O)N1CCCN(c2cc(-n3nc(Nc4ccc(NC(=O)O[C@H]5C[C@H](C)CC[C@H]5C(C)C)cc4)nc3N)ncn2)CC1 [Compound 97] | 50 to 500 nM | 50 to 500 nM |  |  |
| COc1ccc(OC(=O)N(C)c2ccc(Nc3nc(N)n(-c4cc(N5CCCN(C(C)=O)CC5)ncn4)n3)cc2)cc1 [Compound 135] |  |  | < 50 nM | < 50 nM |
| CC(=O)N1[C@H](C)CN(c2cc(-n3nc(Nc4ccc(N5CCN(C(=O)NC6CCCCC6)CC5)cc4)nc3N)ncn2)C[C@@H]1C [Compound 64] | < 50 nM | < 50 nM |  |  |
| CCCC(=O)N1CCN(c2ccc(Nc3nc(N)n(-c4cc(N5CCCN(C(C)=O)CC5)ncn4)n3)cc2)CC1 [Compound 37] | < 50 nM | < 50 nM |  |  |
| CCCOC(=O)N1CCN(c2ccc(Nc3nc(N)n(-c4ccnc(N5CCCN(C(=O)OCCC)CC5)c4)n3)cc2)CC1 [Compound 160] | 50 to 500 nM | 50 to 500 nM |  |  |
| N#CCC(=O)N1CCCN(c2cc(-n3nc(Nc4ccc(N5CCNCC5)cc4)nc3N)ncn2)CC1 [Compound 123] | < 50 nM | < 50 nM |  |  |
| CCOC(=O)N1CCN(c2ccc(Nc3nc(N)n(-c4cc(N5CCCN(C(C)=O)CC5)ncn4)n3)cc2)CC1 [Compound 46] | < 50 nM | < 50 nM |  |  |
| CC(=O)N1[C@H](C)CN(c2cc(-n3nc(Nc4ccc(N5CCN(C(=O)Nc6c(F)cccc6F)CC5)cc4)nc3N)ncn2)C[C@@H]1C [Compound 66] | < 50 nM | < 50 nM |  |  |
| CCCOC(=O)N1CCN(c2ccc(Nc3nc(N)n(-c4ccnc(N5CCCN(S(=O)(=O)C(C)C)CC5)c4)n3)cc2)CC1 [Compound 165] | 50 to 500 nM | 50 to 500 nM |  |  |
| CC(=O)N1[C@H](C)CN(c2cc(-n3nc(Nc4ccc(N)cc4)nc3N)ccn2)C[C@@H]1C [Compound 99] | < 50 nM | < 50 nM |  |  |
| CCN(CC)c1ccc(Nc2nc(N)n(-c3cc(N4CCCN(C(C)=O)CC4)ncn3)n2)cc1 [Compound 12] | < 50 nM | < 50 nM |  |  |
| CCOC(=O)N1CCN(c2ccc(Nc3nc(N)n(-c4ccnc(N5C[C@@H](C)N(C(C)=O)[C@@H](C)C5)c4)n3)cc2)CC1 [Compound 113] | < 50 nM | < 50 nM |  |  |
| CC(=O)N1CCCN(c2cc(-n3nc(Nc4ccc(N(C)C(=O)Oc5ccccc5)cc4)nc3N)ncn2)CC1 [Compound 134] |  |  | < 50 nM | < 50 nM |
| CCOC(=O)N1CCN(c2ccc(Nc3nc(N)n(-c4ccnc(N5CCCN(C(=O)OCC)CC5)c4)n3)cc2)CC1 [Compound 149] | 50 to 500 nM | 50 to 500 nM |  |  |
| CC(=O)N1[C@H](C)CN(c2cc(-n3nc(Nc4ccc(N(C)C(=O)Oc5ccc(C)cc5)cc4)nc3N)ncn2)C[C@@H]1C [Compound 121] |  |  | < 50 nM | < 50 nM |
| Nc1nc(Nc2ccc(N3CCOCC3)cc2)nn1-c1cc(N2CCN3C(=O)CC[C@H]3C2)ncn1 [Compound 22] | < 50 nM | < 50 nM |  |  |
| CC(=O)N1CCCN(c2cc(-n3nc(Nc4ccc(N5CCN(C(=O)OCC(C)C)CC5)cc4)nc3N)ncn2)CC1 [Compound 50] | < 50 nM | < 50 nM |  |  |
| COC1CCCC(C(=O)Nc2ccc(Nc3nc(N)n(-c4cc(N5CCCN(C(C)=O)CC5)ncn4)n3)cc2)C1 (stereo not drawn) [Compound 32] | < 50 nM | < 50 nM |  |  |
| CCCOC(=O)Nc1ccc(Nc2nc(N)n(-c3cc(N4C[C@@H](C)N(C(C)=O)[C@@H](C)C4)ncn3)n2)cc1 [Compound 77] | < 50 nM | < 50 nM |  |  |
| CCNC(=O)Nc1ccc(Nc2nc(N)n(-c3cc(N4C[C@@H](C)N(C(C)=O)[C@@H](C)C4)ncn3)n2)cc1 [Compound 67] | < 50 nM | < 50 nM |  |  |

| Structure (SMILES) | Ki (JAK-2 enzyme; [1]) | Ki (JAK3; [2]) | Ki (JAK-2 enzyme) | Ki (JAK3) |
| --- | --- | --- | --- | --- |
| CCOC(=O)CCNC(=O)Nc1ccc(Nc2nc(N)n(-c3cc(N4CCCN(C(C)=O)CC4)ncn3)n2)cc1 [Compound 89] | < 50 nM | < 50 nM |  |  |
| CCOC(=O)N1CCN(c2ccc(Nc3nc(N)n(-c4cc(N5CCC6CCC(C5)N6C)ncn4)n3)cc2)CC1 (stereo not drawn) [Compound 166] | < 50 nM | < 50 nM |  |  |
| CC(=O)N1CCCN(c2cc(-n3nc(Nc4ccc(N(C)C(=O)OCC(C)C)cc4)nc3N)ncn2)CC1 [Compound 131] | < 50 nM | < 50 nM |  |  |
| COC(=O)N1CCCN(c2cc(-n3nc(Nc4ccc(N5CCN(C(=O)OC(C)C)CC5)cc4)nc3N)ccn2)CC1 [Compound 156] | 50 to 500 nM | 50 to 500 nM |  |  |
| CC(=O)N1[C@H](C)CN(c2cc(-n3nc(Nc4ccc(NC(=O)CCC(C)C)cc4)nc3N)ccn2)C[C@@H]1C [Compound 110] | < 50 nM | < 50 nM |  |  |
| CCOC(=O)N1CCN(c2ccc(Nc3nc(N)n(-c4cc(N5CCCN(C(=O)CC#N)CC5)ncn4)n3)cc2)CC1 [Compound 124] | < 50 nM | < 50 nM |  |  |
| CC(=O)N1[C@H](C)CN(c2cc(-n3nc(Nc4ccc(NC(=O)NC5CCCCC5)cc4)nc3N)ncn2)C[C@@H]1C [Compound 71] | < 50 nM | < 50 nM |  |  |
| CC(=O)N1CCCN(c2cc(-n3nc(Nc4ccc(N5CCN(C(=O)OC(C)C)CC5)cc4)nc3N)ncn2)CC1 [Compound 48] | < 50 nM | < 50 nM |  |  |
| CC(=O)N1CCCN(c2cc(-n3nc(Nc4ccc(N5CCN(C(=O)C(C)(C)C)CC5)cc4)nc3N)ncn2)CC1 [Compound 36] | < 50 nM | < 50 nM |  |  |
| CC(=O)N1[C@H](C)CN(c2cc(-n3nc(Nc4ccc(N5CCN(C(=O)OCC(C)C)CC5)cc4)nc3N)ccn2)C[C@@H]1C [Compound 128] | < 50 nM | < 50 nM |  |  |
| CCS(=O)(=O)N1CCN(c2ccc(Nc3nc(N)n(-c4ccnc(N5CCCN(C(=O)OC)CC5)c4)n3)cc2)CC1 [Compound 152] | 50 to 500 nM | 50 to 500 nM |  |  |
| CC(=O)N1CCCN(c2cc(-n3nc(Nc4ccc(N5CCN(C(=O)C(C)C)CC5)cc4)nc3N)ncn2)CC1 [Compound 44] | < 50 nM | < 50 nM |  |  |
| CC(C)OC(=O)N1CCN(c2ccc(Nc3nc(N)n(-c4ccnc(N5CCCN(S(C)(=O)=O)CC5)c4)n3)cc2)CC1 [Compound 168] | 50 to 500 nM | 50 to 500 nM |  |  |
| CC(=O)N1[C@H](C)CN(c2cc(-n3nc(Nc4ccc(NC(=O)OCC(C)C)cc4)nc3N)ncn2)C[C@@H]1C [Compound 79] | < 50 nM | < 50 nM |  |  |
| CC(=O)N1[C@H](C)CN(c2cc(-n3nc(Nc4ccc(NC(=O)Oc5ccc(C)cc5)cc4)nc3N)ncn2)C[C@@H]1C [Compound 81] | < 50 nM | < 50 nM |  |  |
| CC(=O)N1CCCN(c2cc(-n3nc(Nc4ccc(N5C[C@@H](C)O[C@@H](C)C5)cc4)nc3N)ncn2)CC1 [Compound 33] | < 50 nM | < 50 nM |  |  |
| CC(=O)N1[C@H](C)CN(c2cc(-n3nc(Nc4ccc(NC(=O)OC(C)C)cc4)nc3N)ncn2)C[C@@H]1C [Compound 78] | < 50 nM | < 50 nM |  |  |
| CC(=O)N1[C@H](C)CN(c2cc(-n3nc(Nc4ccc(N5CCN(C(=O)OCC(C)(C)C)CC5)cc4)nc3N)ccn2)C[C@@H]1C [Compound 142] | < 50 nM | < 50 nM |  |  |
| Nc1nc(Nc2ccc(N3CCOCC3)cc2)nn1-c1ccnc(N2CC3CCC(CC3)C2)c1 [Compound 18] | < 50 nM | < 50 nM |  |  |
| CC(=O)N1CCCN(c2cc(-n3nc(Nc4ccc(N5CCOCC5)cc4)nc3N)ccn2)CC1 [Compound 1] | 50 to 500 nM | < 50 nM |  |  |
| CCS(=O)(=O)N1CCCN(c2cc(-n3nc(Nc4ccc(N5CCN(C(=O)OC(C)C)CC5)cc4)nc3N)ccn2)CC1 [Compound 169] | 50 to 500 nM | 50 to 500 nM |  |  |
